A word on the IC50: it is the concentration needed to halve the response being measured. The Kd is the concentration at which binding is half-saturated.

This note sets out measurements from ChEMBL document CHEMBL4229474, “Indenone derivatives as inhibitor of human DNA dealkylation repair enzyme AlkBH3” (Bioorg Med Chem, 2018).

The source made the active and inactive calls. No cut-off for these calls is given here. Some results are limits rather than exact numbers.

The target in experiment [1] is T1, Alpha-ketoglutarate-dependent dioxygenase alkB homolog 3 (Homo sapiens) (UniProt Q96Q83).
T1 sequence (whole entry): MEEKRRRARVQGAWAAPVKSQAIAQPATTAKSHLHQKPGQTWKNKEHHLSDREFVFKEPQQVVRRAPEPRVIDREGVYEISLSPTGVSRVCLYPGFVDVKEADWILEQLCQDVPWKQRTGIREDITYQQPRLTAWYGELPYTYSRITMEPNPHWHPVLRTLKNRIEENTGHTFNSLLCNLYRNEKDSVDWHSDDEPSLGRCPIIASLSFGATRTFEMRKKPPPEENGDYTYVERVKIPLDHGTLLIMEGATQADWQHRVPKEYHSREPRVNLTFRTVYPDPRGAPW
Kind of experiment: Inhibition of recombinant human AlkBH3 assessed as reduction in formaldehyde release at 50 uM using 40-mer single N3-meC as substrate incubated for 60 mins followed by substrate addition measured after 15 mins by fluorescence assay.

In experiment [2] the target is T2, Alpha-ketoglutarate-dependent dioxygenase alkB homolog 3 (Homo sapiens, UniProt Q96Q83).
T2 sequence (Q96Q83 whole entry): T1 sequence (whole entry)
Kind of experiment: Inhibition of recombinant human AlkBH3 assessed as reduction in formaldehyde release using 40-mer single N3-meC as substrate incubated for 60 mins followed by substrate addition measured after 15 mins by fluorescence assay.

For experiment [3], the system named is A549. Kind of experiment: Cytotoxicity against human A549 cells assessed as decrease in cell viability after 48 to 72 hrs by MTT assay. In kind it is functional, cell-based.
Experiment [4] deals with T2, Alpha-ketoglutarate-dependent dioxygenase alkB homolog 3. Kind of experiment: Binding affinity to recombinant human AlkBH3 incubated for 2 mins by isothermal titration calorimetric method. (In general: In ITC the heat of successive injections is recorded.)
Experiment [5] concerns the target T1, Alpha-ketoglutarate-dependent dioxygenase alkB homolog 3 (Homo sapiens). In words: Mixed type inhibition of recombinant human AlkBH3 assessed as reduction in formaldehyde release at 50 to 500 uM using varying levels of 2OG as substrate incubated for 60 mins followed by substrate addition measured after 15 mins by Lineweaver-Burk plot analysis.
Experiment [6] concerns A549. Kind of experiment: Cytotoxicity against human A549 cells assessed as decrease in cell viability at 1 uM after 12 to 60 mins by MTT assay. The experiment is classed as functional, cell-based. (In general: Formazan colour is commonly taken as a measure of viable cells.)
Experiment [7] concerns the target T1, Alpha-ketoglutarate-dependent dioxygenase alkB homolog 3 (Homo sapiens). Kind of experiment: Binding affinity to recombinant human AlkBH3 at 12 uM after 1 hr by far-UV circular dichroism spectroscopy. A general note: Circular dichroism is the unequal absorption of left and right circularly polarised light.
For experiment [8] the target is unchanged. Kind of experiment: Binding affinity to recombinant human AlkBH3 at 12 uM after 1 hr by near-UV circular dichroism spectroscopy.
Experiment [9] shares this target. Kind of experiment: Competitive inhibition of recombinant human AlkBH3 assessed as reduction in formaldehyde release at 50 to 500 uM using 40-mer internal N3me-oligo-dC as substrate incubated for 60 mins followed by substrate addition measured after 15 mins by Lineweaver-Burk plot analysis.
For experiment [10] the target is unchanged. Kind of experiment: Inhibition of AlkBH3 in human A549 cells assessed as increase in MMS-induced cytotoxicity at 1 uM after 48 hrs by MTT assay. The experiment is classed as cell-based.
For experiment [11], the system named is A549. Kind of experiment: Cytotoxicity against human A549 cells assessed as decrease in cell viability at 500 uM after 48 to 72 hrs by MTT assay. The experiment is classed as functional, cell-based.

`COc1cccc(C2=C(c3cccc(OC)c3)c3cc(-c4ccc(C)cc4)ccc3C2=O)c1`: in experiment [1], the inhibition result was “Active”. For the same compound, the IC50 in experiment [2] is 13.1 µM. As for `COc1cccc(C2=C(c3cccc(OC)c3)c3cc(C)ccc3C2=O)c1`, in experiment [2], the IC50 was above 50 µM.

On to `COc1ccc(C2=C(c3ccc(OC)cc3)c3cc(C)ccc3C2=O)cc1`, for which, in [2], the IC50 is above 50 µM. As to `COc1ccc(C2=C(Cl)C(=O)c3ccc(-c4ccc(C)cc4)cc32)cc1`, the inhibition result in experiment [1], in [5], in [9] and in [10] was “Active” each time. The Activity result in [3] is “Dose-dependent effect”. Besides, the IC50 in experiment [3] worked out at 18 µM; in experiment [2] it was 9.8 µM. For the same compound, in [4], the Kd amounted to 7.81 µM. In addition, the outcome in [6], in [7] and in [8] was Active. Take `Cc1ccc2c(c1)C(c1ccccc1)=C(c1ccccc1)C2=O`: the IC50 in experiment [2] was above 50 µM. Take `COc1ccc(C2=C(c3ccc(OC)cc3)c3cc(-c4ccccc4)ccc3C2=O)cc1`: the IC50 in experiment [2] is above 50 µM. Regarding `Cc1ccc(C2=C(c3ccc(C)cc3)c3cc(C)ccc3C2=O)cc1`, in experiment [2], the IC50 was above 50 µM.

Take `Cc1ccc(C2=C(Br)C(=O)c3ccc(C)cc32)cc1`: in experiment [2], the IC50 was above 50 µM. Regarding `COc1ccc(C2=C(Cl)C(=O)c3ccc(C)cc32)cc1`, the result in experiment [6] and in experiment [11] was inactive. The IC50 in experiment [2] is above 50 µM. In addition, the inhibition result in [10] is “inactive”. Turning to `COc1cccc(C2=C(c3cccc(OC)c3)c3cc(-c4ccccc4)ccc3C2=O)c1`, the IC50 in experiment [2] is above 50 µM. Turning to `COc1ccc(C2=C(c3cc(OC)cc(OC)c3)c3cc(C)ccc3C2=O)cc1`, the IC50 in experiment [2] was above 50 µM. `Cc1ccc2c(c1)C(c1ccccc1)=C(Br)C2=O`: in experiment [2], the IC50 was above 50 µM. As for `COc1ccc(C2=C(c3ccc(OC)c(OC)c3)c3cc(-c4ccccc4)ccc3C2=O)cc1OC`, the IC50 in experiment [2] was above 50 µM. On to `COc1ccc(C2=C(c3cc(OC)cc(OC)c3)C(=O)c3ccc(C)cc32)cc1`, for which, in [2], the IC50 was above 50 µM. `COc1ccc(C2=C(c3cc(OC)cc(OC)c3)C(=O)c3ccc(-c4ccc(C)cc4)cc32)cc1`: the IC50 in experiment [2] is above 50 µM.

In the case of `COc1ccc(C2=C(c3ccc(OC)c(OC)c3)c3cc(-c4ccc(C)cc4)ccc3C2=O)cc1OC`, the IC50 in experiment [2] was above 50 µM. For the compound `O=C1C(c2ccccc2)=C(c2ccccc2)c2cc(-c3ccccc3)ccc21`, in experiment [2], the IC50 is above 50 µM. `COc1cc(OC)cc(C2=C(Br)C(=O)c3ccc(C)cc32)c1`: the IC50 in experiment [2] was above 50 µM.

On to `COc1ccc(C2=C(c3ccc(OC)c(OC)c3)c3cc(C)ccc3C2=O)cc1OC`, for which the IC50 in experiment [2] was above 50 µM. As for `Cc1ccc2c(c1)C(c1cccc3ccccc13)=C(Br)C2=O`, the IC50 in experiment [2] was above 50 µM. With `COc1ccc(C2=C(Cl)C(=O)c3ccc(-c4ccccc4)cc32)cc1`, the IC50 in experiment [3] was 370 µM; in [2] it was above 50 µM. Also, the result in experiment [6] was inactive. Further, the inhibition entry in experiment [10] was “inactive”. As for `COc1ccc(C2=C(Br)C(=O)c3ccc(C)cc32)cc1`, the IC50 in experiment [2] came to 43.2 µM.

For `COc1ccc(C2=C(Br)C(=O)c3ccc(C)cc32)cc1OC`, in experiment [2], the IC50 was above 50 µM. For `COc1ccc(C2=C(c3cc(OC)cc(OC)c3)C(=O)c3ccc(-c4ccccc4)cc32)cc1`, the IC50 in experiment [2] was above 50 µM.

As to `Cc1ccc2c(c1)C(c1ccc(Cl)c(Cl)c1)=C(c1ccc(Cl)c(Cl)c1)C2=O`, in experiment [1], the inhibition result was “Active”. For the same compound, in experiment [2], the IC50 was 32.3 µM.
